In US9040266B2, “Cell-based systems for production of methyl formate” (The Regents of the University of California, priority 2009, dated 2015):

Experiments:
[1] = target: methyl halide transferase (MHT) (Batis maritima, UniProt Q9ZSZ7); conditions: halide ion as substrate; Attieh et al. 1995, Ni and Hager 1999; cited from earlier work
A. fermentans = conditions: accumulation of fermentation products; cited from earlier work
[2] = tested on: S. cerevisiae W303a lab strain; assay: Methyl iodide toxicity assay in yeast; assay type: cell-based, Saccharomyces cerevisiae; conditions: cultures diluted to OD600 0.05, OD600 at 24 hours, FIG. 11D
Source text: (§1) FIG. 11A-D: Methyl iodide production in recombinant S. cerevisiae. FIG. 11A. CH3I production pathway. The B. maritima MHT is expressed with a N-terminal vacuole targeting tag. The […] MHT methylates iodide ions using SAM as a methyl donor. FIG. 11B, CH3I measured in culture headspace over time. Activity on glucose-grown cells is shown. FIG. 11C, CH3I yields in grams per liter of culture per day. Values for the culturable red algae E. muricata are taken from the literature. Yields from B. maritime MHT-expressing E. coli and S. cerevisiae are calculated by comparison to standard curves. FIG. 11D, CH3I toxicity in yeast. Exponential phase cultures were diluted to an OD600 of 0.05 and commercially available CH3I was added. OD600 was measured at 24 hours of growth. The W303a lab strain is shown in filled boxes, the DNA methylation-sensitive RAD50Δ mutant is shown in open boxes.
(§2) The response of the host organism to toxic effects of an overproduced metabolite is important for development of an integrated industrial process. Methyl halides are SN2 methylating agents known to cause cytotoxic lesions in ssDNA and RNA. […]
(§3) Individual colonies were inoculated in YP media with 2% glucose and grown overnight. […] OD600 was measured by spectrometry with YP media used as a blank. […]

RAD50Δ mutant = assay type: cell-based, Saccharomyces cerevisiae; conditions: RAD50Δ mutant versus W303a, OD600 at 24 hours
Source text: as §1, §2, §3

[3] = tested on: methyl bromide and methyl iodide production in E. Coli; assay: Methyl halide production by heterologous MHTs expressed in E. coli (Example 8, headspace GC/MS); assay type: cell-based; conditions: FIG. 7
Experimental: Nineteen methyl halide transferase genes from various organisms were codon-optimized and introduced into E. Coli. Production of methyl bromide and methyl iodide was determined for each. […] Group II UBA; Cryptococcus neoformans var. neoformans JEC21; Oryza sativa (japonica cultivar-group); Ostreococcus tauri; Dechloromonas aromatica RCB; Coprinopsis cinerea okayama; Robiginitalea bofirmata HTCC2501; Maricaulis maris MCS10; Flavobacteria bacterium BBFL7; Vitis vinifera and; halorhodospira halophila SL1.
For each strain a single colony was picked and grown overnight (10-14 hrs) in 20 mL of LB miller in a 30 mL glass test tube with aeration (a loose cap) at 37 C and 250 rpm shaking. The culture was spun down in a swinging bucket centrifuge for 5 min @ 3000×g. The cells were resuspended in 20mL of appropriate media (10 g/L Tryptone, 5 g/L Yeast Extract, 165 mM NaX [where X=CI, Br, I]) containing 100 uM IPTG inducer. The cells were sealed with rubber stoppers and parafilm and grown at 37 C with 250 rpm shaking for 1.5 hours. Cultures were taken to the GC/MS and 100 uL of headspace gas was sampled and loaded onto the column. The method run was VOIGT.m. The number of counts for the appropriate mass (MeCl, MeBr, MeI) were reported. Cells were always grown in the presence of 30 ug/mL chloramphenicol.
Methyl halide production was measured as described in the previous Examples. […] C. neoformans JEC21 gave the best methyl bromide and methyl iodide production. Leptospirillum gave the best methyl iodide production.

[4] = tested on: methyl halide production in E. coli on chloride, bromide and iodide; assay: MHT library screen for methyl halide activity in E. coli (Example 9B); assay type: cell-based; conditions: library of 89 genes, FIG. 10A
Source text: As described in Example 9A, to screen for MHTs with high activity in a recombinant host, we synthesized all putative MHTs from the NCBI sequence database and assayed methyl halide production in E. colit. […] These genes were computationally codon optimized for E. coli and yeast expression and constructed using automated whole gene DNA synthesis.
Methyl halide production was sampled by analyzing the headspace gas using GC-MS (Supplementary Information).
Bacteria carrying MHT expression vectors were inoculated from freshly streaked plates and grown overnight. Cells were diluted 100-fold into media containing 1 mM IPTG and 100 mM appropriate sodium halide salt. Culture tubes were sealed with a rubber stopper and grown at 37 degrees for 3 hours. Yeast carrying MHT expression vectors were streaked on uracil dropout plates from freezer stocks (15% glycerol) and grown for 48 hours. Individual colonies were inoculated into 2 mL of synthetic complete uracil dropout media and grown overnight at 30 degrees. Cultures were next inoculated into 100 mL fresh synthetic complete uracil dropout media and grown for 24 hours. Cells were spun down and concentrated to high cell density (OD 50) in fresh YP media with 2% glucose and 100 mM sodium iodide salt. 10 mL of this concentrated culture was aliquoted into 14 mL culture tubes and sealed with a rubber stopper. […]

[Br-].[K+] [Br^−, bromide]
Km [1]: 18.5 mM

I [I^−, iodide]
Km [1]: 8.5 mM

CC(=O)O [acetate]
A. fermentans growth (A. fermentans): inhibited

CCO [ethanol]
A. fermentans growth (A. fermentans): inhibited

CI [methyl iodide]
level up to which yeast were resistant to deleterious methylating effects of methyl iodide [2]: > 5000 µg/mL | sensitivity to methyl iodide (RAD50Δ mutant): increased sensitivity

B1: D. aromatica: methyl halide transferase from Dechloromonas aromatica RCB, SEQ ID NO: 15 (protein, listed as Dechloromonas aromatica)
chain: MSETIKPPEQRPEHPDFWCKRFGEGVTPWDAGKVPMAFVDFVGAQTTPLNSLIPGCGSAWEAAHLAELGWPVTALDFSPLAIEKAREVLGDSPVKLVCADFFTFAPRQPLDLIYERAFLCALPRKLWADWGKQVAELLPSGARLAGFFFLCDQPKGPPFGILPAQLDELLRPNFELIEDQPVGDSVPVFAGRERWQVWRRR
halide specificity of methyl halide production [3]: significant specificity for methyl iodide production

B2: C. cinerea: methyl halide transferase (hypothetical protein) from Coprinopsis cinerea okayama, SEQ ID NO: 16 (protein)
chain: MADPNLAPEIRAKMQEIFKPDDRHSWDLLWKENITPWDAGDAQPSLIELIEESGLDFARKGRALVPGCGTGYDAVYLASALGLQTIGMDISESAVEAANRYRDSSGVQGADRAIFQKADFFTYKVPDEERFDLIMDHTFFCAIHPSLRPEWGQRMSELIKPGGYLITICFPMIPKVETGPPYYLRPEHYDEVLKETFEKVYDKVPTKSSENHKDKERMLVWKKK
modifications: Synthetic polypeptide of hypothetical protein of coprinopsis cinerea.
halide specificity of methyl halide production [3]: significant specificity for methyl iodide production

B3: B. maritima: methyl halide transferase from Batis maritima, SEQ ID NO: 3 (protein, listed as Batis maritima)
chain: MSTVANIAPVFTGDCKTIPTPEECATFLYKVVNSGGWEKCWVEEVIPWDLGVPTPLVLHLVKNNALPNGKGLVPGCGGGYDVVAMANPERFMVGLDISENALKKARETFSTMPNSSCFSFVKEDVFTWRPEQPFDFIFDYVFFCAIDPKMRPAWGKAMYELLKPDGELITLMYPITNHEGGPPFSVSESEYEKVLVPLGFKQLSLEDYSDLAVEPRKGKEKLARWKKMNN
methyl halide activity on each ion (chloride, bromide, iodide) [4]: highest activity | methyl bromide production ([3]; 165 mM NaX, 100 uM IPTG, 1.5 hours): best | halide specificity of methyl halide production [3]: significant specificity for methyl bromide production

B4: Brassica rapa subsp. chinensis: methyl halide transferase from Brassica rapa subsp. chinensis, SEQ ID NO: 6 (protein, listed as Brassica rapa)
chain: MAEVQQNSAHINGENIIPPEDVAKFLPKTVEEGGWEKCWEDGVTPWDQGRATPLVVHLVESSSLPLGRALVPGCGGGHDVVAMASPERYVVGLDISESALEKAAETYGSSPKAKYFTFVKEDFFTWRPNELFDLIFDYVVFCAIEPETRPAWAKAMYELLKPDGELITLMYPITDHDGGPPYKVAFSTYEDVLVPVGFKAVSIEENPYSIATRKGKEKLARWKKIN
halide specificity of methyl halide production [3]: significant specificity for methyl bromide production
